Where a name gives a salt, the structure may show the parent alone.
Assays:
[1] = biological target: T1, human V1a receptor (Homo sapiens, UniProt P37288); test: Cellular in vitro assay for determining vasopressin receptor activity (V1a, aequorin luminescence); assay type: cell-based; conditions: for IC50: CHO cell line transfected with the human V1a receptor, [Arg8]-vasopressin at EC50 concentration, read-out: IC50 hV1a; for ratio IC50 hV2/hV1a: selectivity ratio of IC50 hV2 to IC50 hV1a
T1 construct: expressed in transfected cells; host or cells: CHO K1 (ATCC), also stably transfected with a modified aequorin
Procedure: (§1) B-1. Cellular In Vitro Assay for Determining Vasopressin Receptor Activity
(§2) The identification of agonists and antagonists of the V1a and V2 vasopressin receptors from humans, rats and dogs as well as the quantification of the activity of the compounds of the invention is carried out using recombinant cell lines. These cell lines originally derive from a hamster's ovary epithelial cell (Chinese Hamster Ovary, CHO K1, ATCC: American Type Culture Collection, Manassas, Va. 20108, USA). The test cell lines constitutively express the human, rat or dog V1a or V2 receptors. In case of the Gαq-coupled V1a receptors, cells are also stably transfected with a modified form of the calcium-sensitive photoproteins aequorin (human and rat V1a) or obelin (dog V1a), which, after reconstitution with the cofactor coelenterazine, emit light when there are increases in free calcium concentrations [Rizzuto R, Simpson A W, Brini M, Pozzan T, Nature 358, 325-327 (1992); Illarionov B A, Bondar V S, Illarionova V A, Vysotski E S, Gene 153 (2), 273-274 (1995)]. The resulting vasopressin receptor cells react to stimulation of the recombinantly expressed V1a receptors by intracellular release of calcium ions, which can be quantified by the resulting photoprotein luminescence. The Gs-coupled V2 receptors are stably transfected into cell lines expressing the gene for firefly luciferase under control of a CRE-responsible promoter. Activation of V2 receptors induces the activation of the CRE-responsive promoter via cAMP increase, thereby inducing the expression of firefly luciferase. The light emitted by photoproteins of V1a cell lines as well as the light emitted by firefly luciferase of V2 cell lines corresponds to the activation or inhibition of the respective vasopressin receptor. The bioluminescence of the cell lines is detected using a suitable luminometer [Milligan G, Marshall F, Rees S, Trends in Pharmacological Sciences 17, 235-237 (1996)].
Vasopressin V1a receptor cell lines:
On the day before the assay, the cells are plated out in culture medium (DMEM/F12, 2% FCS, 2 mM glutamine, 10 mM HEPES, 5 μg/ml coelenterazine) in 384-well microtiter plates and kept in a cell incubator (96% humidity, 5% v/v CO2, 37° C.). On the day of the assay, test compounds in various concentrations are placed for 10 minutes in the wells of the microtiter plate before the agonist [Arg^8]-vasopressin at EC50 concentration is added. The resulting light signal is measured immediately in a luminometer.
(§3) Table 1A below lists individual IC50 values for the compounds of the invention (including racemic mixtures as well as separated enantiomers) that were obtained from cell lines transfected with the human V1a or V2 receptor: […]

[2] = biological target: T2, human V2 receptor (Homo sapiens, UniProt P30518); test: Cellular in vitro assay for determining vasopressin receptor activity (V2, CRE-luciferase); assay type: cell-based; conditions: CHO cell line transfected with the human V2 receptor; [Arg8]-vasopressin at EC50 concentration; read-out: IC50 hV2
T2 construct: expressed in transfected cells; host or cells: CHO K1 (ATCC) expressing firefly luciferase under a CRE-responsive promoter
Procedure: as §1, §2
Vasopressin V2 receptor cell lines:
On the day before the assay, the cells are plated out in culture medium (DMEM/F12, 2% FCS, 2 mM glutamine, 10 mM HEPES) in 384-well microtiter plates and kept in a cell incubator (96% humidity, 5% v/v CO2, 37° C.). On the day of the assay, test compounds in various concentrations and the agonist [Arg^8]-vasopressin at EC50 concentration are added together to the wells, and plates are incubated for 3 hours in a cell incubator. Upon addition of the cell lysis reagent Triton™ and the substrate luciferin, luminescence of firefly luciferase is measured in a luminometer.
as §3

T1 sequence (P37288 whole entry): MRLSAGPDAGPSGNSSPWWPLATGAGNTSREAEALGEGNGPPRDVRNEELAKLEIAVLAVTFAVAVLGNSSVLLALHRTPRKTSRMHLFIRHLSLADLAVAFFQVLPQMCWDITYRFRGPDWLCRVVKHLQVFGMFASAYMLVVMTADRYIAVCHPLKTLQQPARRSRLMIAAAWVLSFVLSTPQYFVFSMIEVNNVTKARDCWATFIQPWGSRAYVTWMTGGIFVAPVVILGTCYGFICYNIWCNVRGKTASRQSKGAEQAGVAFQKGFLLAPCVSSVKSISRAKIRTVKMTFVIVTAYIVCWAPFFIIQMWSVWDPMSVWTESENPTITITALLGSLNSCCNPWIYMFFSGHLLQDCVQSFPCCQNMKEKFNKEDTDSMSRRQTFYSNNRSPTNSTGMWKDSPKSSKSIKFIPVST
T2 sequence (P30518 whole entry): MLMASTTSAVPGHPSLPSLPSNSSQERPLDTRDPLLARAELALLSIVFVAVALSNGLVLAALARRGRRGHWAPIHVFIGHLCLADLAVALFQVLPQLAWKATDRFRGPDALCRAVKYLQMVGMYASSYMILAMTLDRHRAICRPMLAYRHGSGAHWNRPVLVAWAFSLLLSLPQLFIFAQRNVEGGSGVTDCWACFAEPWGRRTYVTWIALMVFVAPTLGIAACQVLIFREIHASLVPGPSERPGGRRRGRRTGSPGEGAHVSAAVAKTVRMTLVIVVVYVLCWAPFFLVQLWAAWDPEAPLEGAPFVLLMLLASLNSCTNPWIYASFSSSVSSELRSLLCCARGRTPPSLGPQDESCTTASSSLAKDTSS

Row | Structure (SMILES) | IC50 [1] | ratio IC50 hV2/hV1a [1] | IC50 [2]
1 | O=C(NC(CO)c1nc(Cn2nc(-c3ccc(Cl)cc3)n(C[C@H](O)C(F)(F)F)c2=O)nn1-c1ccccc1Cl)C(F)(F)F (mixture of isomers) [Example 95, N-{1-[1-(2-Chlorophenyl)-3-({3-(4-chlorophenyl)-5-oxo-4-[(2S)-3,3,3-trifluoro-2-hydroxypropyl]-4,5-dihydro-1H-1,2,4-triazol-1-yl}methyl)-1H-1,2,4-triazol-5-yl]-2-hydroxyethyl}-2,2,2-trifluoroacetamide] | 2.1 nM | 8.6 | 18 nM
2 | O=C1NC(c2nc(Cn3nc(-c4ccc(Cl)cc4)n(C[C@H](O)C(F)(F)F)c3=O)nn2-c2ccccc2Cl)CO1 (mixture of isomers) [Example 98, 5-(4-Chlorophenyl)-2-({1-(2-chlorophenyl)-5-[2-oxo-1,3-oxazolidin-4-yl]-1H-1,2,4-triazol-3-yl}methyl)-4-[(2S)-3,3,3-trifluoro-2-hydroxypropyl]-2,4-dihydro-3H-1,2,4-triazol-3-one] | 0.62 nM | 9.8 | 6 nM
3 | CN1C(=O)CCC1c1nc(Cn2nc(-c3ccc(Cl)cc3)n(C[C@H](O)C(F)(F)F)c2=O)nn1-c1ncccc1Cl (mixture of isomers) [Example 103, 5-(4-Chlorophenyl)-2-({1-(3-chloropyridin-2-yl)-5-[(2R)-1-methyl-5-oxopyrrolidin-2-yl]-1H-1,2,4-triazol-3-yl}methyl)-4-[(2S)-3,3,3-trifluoro-2-hydroxypropyl]-2,4-dihydro-3H-1,2,4-triazol-3-one] | 1.45 nM | 18.3 | 26.5 nM
4 | CC(N)c1nc(Cn2nc(-c3ccc(Cl)cc3)n(C[C@H](O)C(F)(F)F)c2=O)nn1-c1ncccc1Cl (mixture of isomers) [Example 106, 2-({5-[1-Aminoethyl]-1-(3-chloropyridin-2-yl)-1H-1,2,4-triazol-3-yl}methyl)-5-(4-chlorophenyl)-4-[(2S)-3,3,3-trifluoro-2-hydroxypropyl]-2,4-dihydro-3H-1,2,4-triazol-3-one] | 1.65 nM | 11.2 | 18.5 nM
5 | CC(=O)NC(C)c1nc(Cn2nc(-c3ccc(Cl)cc3)n(C[C@H](O)C(F)(F)F)c2=O)nn1-c1ncccc1Cl (mixture of isomers) [Example 107, N-{1-[3-({3-(4-Chlorophenyl)-5-oxo-4-[(2S)-3,3,3-trifluoro-2-hydroxypropyl]-4,5-dihydro-1H-1,2,4-triazol-1-yl}methyl)-1-(3-chloropyridin-2-yl)-1H-1,2,4-triazol-5-yl]ethyl}acetamide] | 13.5 nM | 17.8 | 240 nM
6 | O=C1NC(c2nc(Cn3nc(-c4ccc(Cl)cc4)n(C[C@H](O)C(F)(F)F)c3=O)nn2-c2ncccc2Cl)CO1 (mixture of isomers) [Example 112, 5-(4-Chlorophenyl)-2-({1-(3-chloropyridin-2-yl)-5-[2-oxo-1,3-oxazolidin-4-yl]-1H-1,2,4-triazol-3-yl}methyl)-4-[(2S)-3,3,3-trifluoro-2-hydroxypropyl]-2,4-dihydro-3H-1,2,4-triazol-3-one] | 8.4 nM | 25.0 | 210 nM
7 | O=C1NC(c2nc(Cn3nc(-c4ccc(Cl)cc4)n(C[C@H](O)C(F)(F)F)c3=O)nn2-c2ncccc2OC(F)(F)F)CO1 (mixture of isomers) [Example 117, 5-(4-Chlorophenyl)-2-({5-[2-oxo-1,3-oxazolidin-4-yl]-1-[3-(trifluoromethoxy)pyridin-2-yl]-1H-1,2,4-triazol-3-yl}methyl)-4-[(2S)-3,3,3-trifluoro-2-hydroxypropyl]-2,4-dihydro-3H-1,2,4-triazol-3-one] | 21.5 nM | 21.9 | 470 nM
8 | CC(=O)NC(CO)c1nc(Cn2nc(-c3ccc(Cl)cc3)n(C[C@H](O)C(F)(F)F)c2=O)nn1-c1ncccc1OC(F)(F)F (mixture of isomers) [Example 120, N-[1-{3-({3-(4-Chlorophenyl)-5-oxo-4-[(2S)-3,3,3-trifluoro-2-hydroxypropyl]-4,5-dihydro-1H-1,2,4-triazol-1-yl}methyl)-1-[3-(trifluoromethoxy)pyridin-2-yl]-1H-1,2,4-triazol-5-yl}-2-hydroxyethyl]acetamide] | 12.5 nM | 32.8 | 410 nM
9 | CNc1ccncc1-n1nc(Cn2nc(-c3ccc(Cl)cc3)n(C[C@H](O)C(F)(F)F)c2=O)nc1C(C)N (mixture of isomers) [Example 124, 2-({5-[1-Aminoethyl]-1-[4-(methylamino)pyridin-3-yl]-1H-1,2,4-triazol-3-yl}methyl)-5-(4-chlorophenyl)-4-[(2S)-3,3,3-trifluoro-2-hydroxypropyl]-2,4-dihydro-3H-1,2,4-triazol-3-one hydrochloride] | 34 nM | 2.2 | 74.5 nM
10 | CNc1ccncc1-n1nc(Cn2nc(-c3ccc(Cl)cc3)n(C[C@H](O)C(F)(F)F)c2=O)nc1C(C)NC(C)=O (mixture of isomers) [Example 125, N-[1-{3-({3-(4-Chlorophenyl)-5-oxo-4-[(2S)-3,3,3-trifluoro-2-hydroxypropyl]-4,5-dihydro-1H-1,2,4-triazol-1-yl}methyl)-1-[4-(methylamino)pyridin-3-yl]-1H-1,2,4-triazol-5-yl}ethyl]acetamide hydrochloride] | 64 nM | 9.3 | 595 nM
11 | CC(N)c1nc(Cn2nc(-c3ccc(Cl)cc3)n(C[C@H](O)C(F)(F)F)c2=O)nn1-c1ncccn1 (mixture of isomers) [Example 128, 2-({5-[1-Aminoethyl]-1-(pyrimidin-2-yl)-1H-1,2,4-triazol-3-yl}methyl)-5-(4-chlorophenyl)-4-[(2S)-3,3,3-trifluoro-2-hydroxypropyl]-2,4-dihydro-3H-1,2,4-triazol-3-one hydrochloride] | 94.5 nM | 22.8 | 2150 nM
12 | CC(=O)NC(C)c1nc(Cn2nc(-c3ccc(Cl)cc3)n(C[C@H](O)C(F)(F)F)c2=O)nn1-c1ncccn1 (mixture of isomers) [Example 129, N-{1-[3-({3-(4-Chlorophenyl)-5-oxo-4-[(2S)-3,3,3-trifluoro-2-hydroxypropyl]-4,5-dihydro-1H-1,2,4-triazol-1-yl}methyl)-1-(pyrimidin-2-yl)-1H-1,2,4-triazol-5-yl]ethyl}acetamide] | 190 nM | 8.2 | 1550 nM
13 | CN1C(=O)CCC1c1nc(Cn2nc(-c3ccc(Cl)cc3)n(C[C@H](O)C(F)(F)F)c2=O)nn1CCC(F)(F)F (mixture of isomers) [Example 130, 5-(4-Chlorophenyl)-2-({5-[1-methyl-5-oxopyrrolidin-2-yl]-1-(3,3,3-trifluoropropyl)-1H-1,2,4-triazol-3-yl}methyl)-4-[(2S)-3,3,3-trifluoro-2-hydroxypropyl]-2,4-dihydro-3H-1,2,4-triazol-3-one] | 21 nM | 127.9 | 2680 nM
14 | COc1ccccc1-n1nc(Cn2nc(-c3ccc(Cl)cc3)n(C[C@H](O)C(F)(F)F)c2=O)nc1C(C)OC(N)=O (single isomer, unassigned) [Example 39] | 1.1 nM | 1.6 | 1.76 nM
15 | COc1ccccc1-n1nc(Cn2nc(-c3ccc(Cl)cc3)n(C[C@H](OC(N)=O)C(F)(F)F)c2=O)nc1C(C)OC(N)=O (single isomer, unassigned) [Example 40] | 5.86 nM | 1.1 | 6.35 nM
16 | COc1ccccc1-n1nc(Cn2nc(-c3ccc(Cl)cc3)n(C[C@H](O)C(F)(F)F)c2=O)nc1C(C)OC(N)=O (single isomer, unassigned) [Example 41] | 2.01 nM | 4.8 | 9.69 nM

From US20210253557A1, “SUBSTITUTED TRIAZOLE DERIVATIVES AND USES THEREOF” (Bayer Pharma Aktiengesellschaft, priority 2017, published 2021)
